Tested on: H9P83 cells on MATRIGEL and H9P44 cells on MEFs
Assay: Microarray analysis of gene expression after definitive endoderm formation (Table IV)
Type: cell-based, human
Settings: after 5 days of treatment
Protocol: Controls for each group included cells plated on […]-coated dishes and cultured in MEF-conditioned medium or cells plated on MEFs and cultured in ES medium.
Sample preparation, hybridization, and image analysis were performed according to the Affymetrix Human Genome U133 Plus 2.0 Array. Following normalization and a log transformation, data analysis was performed using OmniViz® software (MA) and […] (VizXLabs, WA). The variability within each treatment and among the different treatments was compared using the Pearson correlation coefficient. […] Significant differences in gene expression between the samples were evaluated using analysis of variance and an F-test with adjusted P-value (Benjamini and Hochberg correction) of ≤0.05. Only genes with a present call were included in the analysis.

[1] = H9P44 on MEFs-DE stage, undifferentiated H9P44 on MEFs 2.17
[2] = H9P44 on MEFs-DE stage, undifferentiated H9P44 on MEFs 2.18
[3] = H9P44 on MEFs-DE stage, undifferentiated H9P44 on MEFs 3.80
[4] = H9P83 on Matrigel-DE stage, undifferentiated H9P83 on Matrigel 1.38

Substance: Activin A: a member of the TGFβ superfamily; growth factor (R&D Systems) used to differentiate human embryonic stem cells
- expression of HCN1 (BM682352, cDNA FLJ37204 fis, clone BRALZ2006976) (H9P44 on MEFs-DE stage): −3.88
- expression of INDO (M34455, indoleamine 2,3-dioxygenase (IDO)) (H9P44 on MEFs-DE stage): 1.69
- expression of JAKMIP2 (BU729850, hypothetical protein LOC153469) (H9P44 on MEFs-DE stage): −1.56
- expression of LOC157627 (AL832535, cDNA DKFZp547J1816) (H9P44 on MEFs-DE stage): −1.50
- expression of PCSK1 (NM_000439, proprotein convertase subtilisinkexin type 1) (H9P44 on MEFs-DE stage): −3.19
- expression of SMOC2 (AB014737, mRNA for SMAP-2b) (H9P44 on MEFs-DE stage): −2.27
- SCNN1G (AI985987) gene expression (H9P44 on MEFs-DE stage, undifferentiated H9P44 on MEFs 0.12): −2.70
- TMEM16A (NM_018043) gene expression (H9P44 on MEFs-DE stage, undifferentiated H9P44 on MEFs 0.25): −3.93
- LOC646326 (BE972639) gene expression (H9P44 on MEFs-DE stage, undifferentiated H9P44 on MEFs 0.33): −2.24
- COL14A1 (AI693516) gene expression (H9P44 on MEFs-DE stage, undifferentiated H9P44 on MEFs 0.96): −1.81
- AK5 (BG169832) gene expression (H9P44 on MEFs-DE stage, undifferentiated H9P44 on MEFs 1.03): −1.94
- C9orf39 (AA280904) gene expression (H9P44 on MEFs-DE stage, undifferentiated H9P44 on MEFs 1.13): −0.78
- LOC200230 (AI056877) gene expression (H9P44 on MEFs-DE stage, undifferentiated H9P44 on MEFs 1.15): −1.35
- CTNND2 (U96136) gene expression (H9P44 on MEFs-DE stage, undifferentiated H9P44 on MEFs 1.18): −1.17
- SDK2 (N23651) gene expression (H9P44 on MEFs-DE stage, undifferentiated H9P44 on MEFs 1.27): −2.07
- SAMHD1 (AF147427) gene expression (H9P44 on MEFs-DE stage, undifferentiated H9P44 on MEFs 1.35): −2.30
- PAH (NM_000277) gene expression (H9P44 on MEFs-DE stage, undifferentiated H9P44 on MEFs 1.46): −0.42
- AL120674 (ESTs) gene expression (H9P44 on MEFs-DE stage, undifferentiated H9P44 on MEFs 1.55): −2.20
- AI742043 (ESTs) gene expression (H9P44 on MEFs-DE stage, undifferentiated H9P44 on MEFs 1.77): −1.45
- DAZL (NM_001351) gene expression (H9P44 on MEFs-DE stage, undifferentiated H9P44 on MEFs 1.93): −0.73
- PSMB9 (NM_002800) gene expression (H9P44 on MEFs-DE stage, undifferentiated H9P44 on MEFs 2.05): −1.43
- BF698797 (ESTs) gene expression (H9P44 on MEFs-DE stage, undifferentiated H9P44 on MEFs 2.07): −0.40
- AF107846 (neuroendocrine-specific Golgi protein p55 (XLalphas) gene) expression (H9P44 on MEFs-DE stage, undifferentiated H9P44 on MEFs 2.12): −2.56
- CHST8 (NM_022467) gene expression [1]: 0.48
- NPTX1 (NM_002522) gene expression [1]: −1.19
- FGF19 (AF110400) gene expression [2]: −0.91
- PCDH8 (NM_002590) gene expression [2]: 0.12
- LOC157627 (AF052108) gene expression (H9P44 on MEFs-DE stage, undifferentiated H9P44 on MEFs 2.26): −1.33
- C10orf96 (BC044830) gene expression (H9P44 on MEFs-DE stage, undifferentiated H9P44 on MEFs 2.28): −1.39
- CR2 (NM_001877) gene expression (H9P44 on MEFs-DE stage, undifferentiated H9P44 on MEFs 2.35): −1.44
- SAMHD1 (NM_015474) gene expression (H9P44 on MEFs-DE stage, undifferentiated H9P44 on MEFs 2.89): 0.29
- PSMB8 (U17496) gene expression (H9P44 on MEFs-DE stage, undifferentiated H9P44 on MEFs 3.30): 0.09
- HHIP (AK098525) gene expression (H9P44 on MEFs-DE stage, undifferentiated H9P44 on MEFs 3.32): −0.11
- KCNG3 (NM_133329) gene expression (H9P44 on MEFs-DE stage, undifferentiated H9P44 on MEFs 3.67): 0.26
- STXBP6 (N21096) gene expression (H9P44 on MEFs-DE stage, undifferentiated H9P44 on MEFs 3.69): 1.14
- NMI (NM_004688) gene expression [3]: 1.13
- RMST (BE468066) gene expression [3]: 1.63
- TOX (AI961231) gene expression (H9P44 on MEFs-DE stage, undifferentiated H9P44 on MEFs 4.00): 1.13
- C20orf118 (BF437747) gene expression (H9P44 on MEFs-DE stage, undifferentiated H9P44 on MEFs 4.57): 1.75
- C20orf118 (AV715309) gene expression (H9P44 on MEFs-DE stage, undifferentiated H9P44 on MEFs 4.76): 1.48
- FEZ1 (NM_005103) gene expression (H9P44 on MEFs-DE stage, undifferentiated H9P44 on MEFs 4.98): 2.20
- SCG5 (NM_003020) gene expression (H9P44 on MEFs-DE stage, undifferentiated H9P44 on MEFs 5.01): 3.11
- LECT1 (NM_007015) gene expression (H9P44 on MEFs-DE stage, undifferentiated H9P44 on MEFs 5.36): 1.83
- IFIH1 (NM_022168) gene expression (H9P44 on MEFs-DE stage, undifferentiated H9P44 on MEFs −0.10): −2.15
- ATP5S (BE968806) gene expression (H9P44 on MEFs-DE stage, undifferentiated H9P44 on MEFs −0.34): −4.73
- PAK7 (AB040812) gene expression (H9P44 on MEFs-DE stage, undifferentiated H9P44 on MEFs −0.49): −4.18
- expression of HCN1 (BM682352, cDNA FLJ37204 fis, clone BRALZ2006976) (H9P83 on Matrigel-DE stage): −4.38
- expression of INDO (M34455, indoleamine 2,3-dioxygenase (IDO)) (H9P83 on Matrigel-DE stage): 1.58
- expression of JAKMIP2 (BU729850, hypothetical protein LOC153469) (H9P83 on Matrigel-DE stage): 0.43
- expression of LOC157627 (AL832535, cDNA DKFZp547J1816) (H9P83 on Matrigel-DE stage): −0.04
- expression of PCSK1 (NM_000439, proprotein convertase subtilisinkexin type 1) (H9P83 on Matrigel-DE stage): −2.68
- expression of SMOC2 (AB014737, mRNA for SMAP-2b) (H9P83 on Matrigel-DE stage): −2.04
- LOC646326 (BE972639) gene expression (H9P83 on Matrigel-DE stage, undifferentiated H9P83 on Matrigel 0.00): −2.71
- LOC200230 (AI056877) gene expression (H9P83 on Matrigel-DE stage, undifferentiated H9P83 on Matrigel 0.11): −2.37
- C9orf39 (AA280904) gene expression (H9P83 on Matrigel-DE stage, undifferentiated H9P83 on Matrigel 0.23): −1.58
- COL14A1 (AI693516) gene expression (H9P83 on Matrigel-DE stage, undifferentiated H9P83 on Matrigel 0.39): −1.63
- AF107846 (neuroendocrine-specific Golgi protein p55 (XLalphas) gene) expression (H9P83 on Matrigel-DE stage, undifferentiated H9P83 on Matrigel 0.44): −0.25
- AK5 (BG169832) gene expression (H9P83 on Matrigel-DE stage, undifferentiated H9P83 on Matrigel 0.62): −2.79
- PAH (NM_000277) gene expression (H9P83 on Matrigel-DE stage, undifferentiated H9P83 on Matrigel 0.65): −1.08
- CTNND2 (U96136) gene expression (H9P83 on Matrigel-DE stage, undifferentiated H9P83 on Matrigel 0.78): −1.33
- BF698797 (ESTs) gene expression (H9P83 on Matrigel-DE stage, undifferentiated H9P83 on Matrigel 0.93): −0.74
- AI742043 (ESTs) gene expression (H9P83 on Matrigel-DE stage, undifferentiated H9P83 on Matrigel 0.94): −0.76
- AL120674 (ESTs) gene expression (H9P83 on Matrigel-DE stage, undifferentiated H9P83 on Matrigel 1.00): −1.35
- SAMHD1 (AF147427) gene expression (H9P83 on Matrigel-DE stage, undifferentiated H9P83 on Matrigel 1.33): −0.99
- C10orf96 (BC044830) gene expression [4]: −0.32
- PSMB9 (NM_002800) gene expression [4]: 0.27
- LOC157627 (AF052108) gene expression (H9P83 on Matrigel-DE stage, undifferentiated H9P83 on Matrigel 1.49): 0.22
- CR2 (NM_001877) gene expression (H9P83 on Matrigel-DE stage, undifferentiated H9P83 on Matrigel 1.50): −0.43
- DAZL (NM_001351) gene expression (H9P83 on Matrigel-DE stage, undifferentiated H9P83 on Matrigel 1.69): −0.81
- HHIP (AK098525) gene expression (H9P83 on Matrigel-DE stage, undifferentiated H9P83 on Matrigel 1.76): −0.57
- CHST8 (NM_022467) gene expression (H9P83 on Matrigel-DE stage, undifferentiated H9P83 on Matrigel 2.11): −0.51
- FGF19 (AF110400) gene expression (H9P83 on Matrigel-DE stage, undifferentiated H9P83 on Matrigel 2.12): −0.08
- KCNG3 (NM_133329) gene expression (H9P83 on Matrigel-DE stage, undifferentiated H9P83 on Matrigel 2.18): 0.74
- NPTX1 (NM_002522) gene expression (H9P83 on Matrigel-DE stage, undifferentiated H9P83 on Matrigel 2.35): −0.48
- STXBP6 (N21096) gene expression (H9P83 on Matrigel-DE stage, undifferentiated H9P83 on Matrigel 2.42): 0.99
- SAMHD1 (NM_015474) gene expression (H9P83 on Matrigel-DE stage, undifferentiated H9P83 on Matrigel 2.63): 0.57
- FEZ1 (NM_005103) gene expression (H9P83 on Matrigel-DE stage, undifferentiated H9P83 on Matrigel 2.80): 2.08
- RMST (BE468066) gene expression (H9P83 on Matrigel-DE stage, undifferentiated H9P83 on Matrigel 3.26): 1.49
- TOX (AI961231) gene expression (H9P83 on Matrigel-DE stage, undifferentiated H9P83 on Matrigel 3.28): 1.23
- PSMB8 (U17496) gene expression (H9P83 on Matrigel-DE stage, undifferentiated H9P83 on Matrigel 3.43): 0.46
- NMI (NM_004688) gene expression (H9P83 on Matrigel-DE stage, undifferentiated H9P83 on Matrigel 3.54): 0.96

Reference: patent publication US11708562B2, “Differentiation of human embryonic stem cells” (Janssen Biotech, Inc., priority 2006, dated 2023)
